Experimental data from PubChem BioAssay (NCI).
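Cells were grown in 96-well plates and exposed to each compound for 48 hours at five concentrations; endpoints were interpolated linearly between bracketing concentrations, or set to the highest concentration if not reached. GI50 is the concentration that inhibits growth by half. TGI marks complete inhibition of growth.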

Tests used:
Assay in all cases: NCI-60 cell line screen, 48 h
HCT-116 colon = tested on: HCT-116 colon
HCT-15 colon = tested on: HCT-15 colon
K-562 leukemia = tested on: K-562 leukemia
KM12 colon = tested on: KM12 colon
M14 melanoma = tested on: M14 melanoma
NCI-H226 lung = tested on: NCI-H226 lung
MALME-3M melanoma = tested on: MALME-3M melanoma
NCI-H460 lung = tested on: NCI-H460 lung
RPMI-8226 leukemia = tested on: RPMI-8226 leukemia
SK-MEL-5 melanoma = tested on: SK-MEL-5 melanoma

Structure (SMILES) | GI50 (HCT-116 colon) | TGI (HCT-116 colon) | GI50 (HCT-15 colon) | GI50 (K-562 leukemia) | TGI (K-562 leukemia) | GI50 (KM12 colon) | TGI (KM12 colon) | TGI (M14 melanoma) | GI50 (NCI-H226 lung) | TGI (NCI-H226 lung) | TGI (HCT-15 colon) | TGI (MALME-3M melanoma) | TGI (NCI-H460 lung) | TGI (RPMI-8226 leukemia) | TGI (SK-MEL-5 melanoma) | GI50 (MALME-3M melanoma) | GI50 (NCI-H460 lung) | GI50 (RPMI-8226 leukemia) | GI50 (SK-MEL-5 melanoma)
COc1cc2c(cc1O)CCN[C@@]21CS[C@H]2c3c(OC(C)=O)c(C)c4c(c3C(COC1=O)N1C2C2c3c(cc(C)c(OC)c3O)CC([C@@H]1O)N2C)OCO4 (stereo partly specified) | 0.00305 µM | > 0.525 µM | 0.00282 µM | < 0.001 nM | 1.54e-05 µM | 0.00337 µM | 0.0161 µM | 0.00473 µM | < 1 pM | < 1e-06 µM |  |  |  |  |  |  |  |  | 
N=C(N)SC1c2ccccc2-c2cc([N+](=O)[O-])ccc21 (stereo unspecified) |  | 16.3 µM |  |  | 22 µM |  | 11.4 µM | 17.7 µM |  | 21 µM | 22.6 µM | 16.9 µM | 17.2 µM | 30.1 µM | 10.6 µM |  |  |  | 
C/C=C1/CN2CC[C@@H]3c4ccccc4N4[C@H](C(=O)OC)[C@H]1C[C@H]2[C@]34/C=C/C1=COC[C@@H]2[C@H]1C[C@H]1c3c(c4ccccc4n3C)C[C@@H]2N1C |  | 7.61 µM |  |  | 25 µM |  |  | 7.9 µM |  | 9.16 µM | 7.83 µM | 8.5 µM | 7.41 µM | 8.33 µM | 7.48 µM |  |  |  | 
O=S(=O)(O)c1cc(O)c2c(O)c(N=Nc3ccc(/C=C/c4ccc(N=Nc5c(S(=O)(=O)O)cc6cc(S(=O)(=O)O)cc(O)c6c5O)cc4S(=O)(=O)O)c(S(=O)(=O)O)c3)c(S(=O)(=O)O)cc2c1 |  | > 100 µM |  |  | > 100 µM |  | > 100 µM | > 100 µM |  | > 100 µM | > 100 µM | > 100 µM | > 100 µM | > 100 µM | > 100 µM |  |  |  | 
CC(=O)O[C@H]1CC[C@]2(C)[C@H]3C(=O)C=C4[C@@H]5C[C@](C)(C(=O)N6CCCNCC6)CC[C@]5(C)CC[C@@]4(C)[C@]3(C)CC[C@H]2C1(C)C |  |  | 1.48 µM | 1270 nM | 4.27 µM | 1.71 µM | 3.21 µM |  |  |  | 2.97 µM | 3.47 µM | 3.11 µM | 4.01 µM | 4.42 µM | 1.8 µM | 1.58 µM | 1.46 µM | 2.1 µM
Nc1nc(SCCC/C=C/B(O)O)nc2c1ncn2C1OC(CO)C(O)C1O (stereo unspecified) |  | > 243 µM |  |  | > 243 µM |  | > 243 µM | > 243 µM |  | > 243 µM | > 243 µM | > 243 µM | > 243 µM |  | > 243 µM |  |  |  | 
O=C(N/N=C/c1cc(Br)cc(Br)c1[O-])c1ccccc1O.O=C(N/N=C/c1cc(Br)cc(Br)c1[O-])c1ccccc1O.[Cl-].[Fe+3] |  | 10.2 µM |  | 2590 nM | 5.63 µM |  | 81.6 µM | 9.96 µM |  | 4.97 µM | 3.84 µM |  | 17.7 µM |  | 12.3 µM |  |  |  | 
CC1(C)[C@@H]2C[C@H]1C(Cc1ccccc1C[C@H]1c3cc(-c4ccccn4)ncc3[C@H]3C[C@@H]1C3(C)C)c1cc(-c3ccccn3)ncc12 (stereo partly specified) |  | 10.1 µM |  |  | > 100 µM |  | 13.4 µM |  |  |  | > 100 µM | > 100 µM | > 31.9 µM | 3.33 µM | 28.1 µM |  |  |  | 
C=C(/C=C/C=C(/CCC=C(C)C)COC(C)=O)[C@@H]1CC[C@]2([C@H](CCCO)/C(=C(/C)C=O)CC[C@]2(C)O)[C@@H]1O |  | 45.6 µM |  |  | 30.2 µM |  | 32.4 µM | 23.5 µM |  | 19.6 µM | 30.4 µM | 15.7 µM | 24.3 µM |  |  |  |  |  | 
CN(C)CCNc1ccc2nnn3c4ccc(Cl)cc4c(=O)c1c23 |  | 14.6 µM |  |  | 22.7 µM |  | 20.8 µM | 16.7 µM |  | 5.31 µM | 14.8 µM | 17 µM | 14.8 µM | 25.4 µM | 10.6 µM |  |  |  | 
CCCNCC(O)/C=C/[Si](C)(C)C (stereo unspecified) (tested in a mixture with another compound) |  | > 100 µM |  |  | > 100 µM |  | > 100 µM | > 100 µM |  |  | > 100 µM | > 100 µM | > 100 µM | > 100 µM | > 100 µM |  |  |  | 
NC(Cc1ccc2oc3cc(=O)c4ccccc4c-3nc2c1)C(=O)O (stereo unspecified) |  | 76.8 µM |  |  | 77.1 µM |  | > 100 µM | 30.1 µM |  | 73.1 µM | > 88.3 µM | 17.6 µM | 32 µM | > 88.3 µM | 11.5 µM |  |  |  | 
COc1cc2c(cc1OC)C(C1(O)CCCCC1)NCC2 (stereo unspecified) |  | > 100 µM |  |  | > 100 µM |  | > 100 µM | > 100 µM |  | > 100 µM | > 100 µM | > 100 µM | > 100 µM | > 100 µM | > 100 µM |  |  |  | 
Cc1c(Cl)c(S(N)(=O)=O)cc(S(N)(=O)=O)c1NC(=O)c1ccc(Cl)cc1 |  | > 100 µM |  |  | > 100 µM |  | > 100 µM | > 100 µM |  | > 100 µM | > 100 µM | > 100 µM | > 100 µM | > 100 µM | > 100 µM |  |  |  | 
O=[N+]([O-])/C=C/c1cccc(F)c1 |  | 8.86 µM |  |  |  |  | 10.3 µM | 10.7 µM |  | 6.05 µM | 5.6 µM | 32.5 µM | 30.4 µM | 4.14 µM | 18.6 µM |  |  |  | 
C#CCCCCC#CC1CCCC1C1=CC(=O)c2ccccc21 (stereo unspecified) |  | 2.91 µM |  |  | 8.14 µM |  | 19.6 µM | 17 µM |  | 29.8 µM | 19.9 µM | 20.1 µM | 32.5 µM | 6.46 µM | 20.2 µM |  |  |  | 
Oc1ccc2ccccc2c1N=Nc1ccc(N=Nc2ccccc2)cc1 |  | > 100 µM |  |  | > 100 µM |  | > 100 µM | > 100 µM |  | > 100 µM | > 100 µM | > 100 µM |  | > 100 µM | > 100 µM |  |  |  | 
CCCCCCc1ccc(O)cc1O |  | > 100 µM |  |  | > 100 µM |  | > 100 µM |  |  | > 100 µM | > 100 µM | > 100 µM | > 100 µM | > 77 µM | > 79.1 µM |  |  |  | 
Nc1nc(Cl)cc(NCCCCO)n1 |  | > 100 µM |  |  | > 100 µM |  | > 100 µM | > 10 µM |  | > 100 µM | > 100 µM | > 100 µM | > 100 µM | > 100 µM | > 100 µM |  |  |  | 
CCOC(=O)C1=C(C)N2CCCOC2(C)C(C(=O)OC)C1c1cccc([N+](=O)[O-])c1 (stereo unspecified) |  | > 100 µM |  |  | > 100 µM |  | > 100 µM | > 100 µM |  | > 100 µM |  |  | > 100 µM | > 100 µM | > 100 µM |  |  |  | 
CN[C@@H]1[C@H](O)[C@H](NC)[C@H]2O[C@@]3(O)C(=O)C[C@@H](C)O[C@H]3O[C@@H]2[C@H]1O |  | > 100 µM |  |  | > 100 µM |  | > 100 µM | > 100 µM |  | > 100 µM | > 100 µM | > 100 µM | > 100 µM | > 100 µM | > 100 µM |  |  |  | 
Cc1ccccc1N=Nc1ccc(N=Nc2c(O)ccc3cc(S(=O)(=O)O)cc(S(=O)(=O)O)c23)c(C)c1 |  | > 100 µM |  |  | > 100 µM |  | > 100 µM | > 100 µM |  | > 100 µM | > 100 µM | > 100 µM | > 100 µM | > 100 µM | > 100 µM |  |  |  | 
